Patent publication US3968204A, “Antibiotic A-2315” (priority 1975, dated 1976)
Converted amounts (≈) assume the structure as drawn.

Columns and labels:
Mycobacterium avium = assay: Disc-plate MIC; settings: Disc-Plate Method
Clostridium ramosum = assay: MIC, anaerobic bacteria; assay type: cell-based; settings: Thomasclavelia ramosa
[1] = test system: Bacteriodes fragilis ssp. fragilis; assay: MIC, anaerobic bacteria; assay type: cell-based
Sarcina lutea = assay: Disc-plate MIC; settings: Disc-Plate Method
[2] = test system: Staphylococcus aureus 3055; assay: Protection of mice against experimental bacterial infection; assay type: in vivo; settings: Staphylococcus aureus, 3055, sc, subcutaneous, two doses
Procedure: When two doses each of A-2315 factors were administered to mice in illustrative infections, the ED50 values [effective dose in mg/kg to protect 50 percent of the test aninals; see Warren Wick, et al., J. Bacteriol.
^ 2 Infecting challenges: S. aureus 3.16 × LD50 (ip)

CC1=CC(O)CC(O)Cc2nc(co2)C(=O)NC(C)C(=O)OC(C(C)C)C(C)C=CC(=O)NCC=C1 (stereo not drawn) [Factor A] showed an MIC (Mycobacterium avium) of 3.13 μg/disc, an MIC (Clostridium ramosum) of 8 µg/mL (≈ 15.9 µM) and an MIC [1] of 128 µg/mL (≈ 254 µM). For the same compound, the MIC (Sarcina lutea) was 0.008 μg/disc, the ED50 ([2]; Test I, challenge 4000 × LD50 (ip)) was 90 mg/kg and the ED50 ([2]; Test II, challenge 3.16 × LD50 (ip)) was 45.7 mg/kg.
